Measured values reported in article PMC2692895 (Journal of medicinal chemistry, 2008).
Where two headings read alike, the source gives them in different places. Each block holds one molecule with its values, some of them ahead of it.

How the values were obtained:
[1] = Drug metabolic stability, S9 fraction with NADPH; type: in vitro ADME
[2] = Permeability by PAMPA; type: in vitro ADME
[3] = tested on: caspase-3 activation in MDA-MB-231 cells; experiment: Caspase-3 activation; settings: MDA-MB-231, 24 hours
[4] = tested on: MDA-MB-231 breast cancer cell lines; settings: cited from earlier work
[5] = tested on: MDA-MB-231 cells; experiment: ATPLite cell viability, compound 3 and TRAIL alone or combined; type: cell-based, human; settings: low concentrations up to 110 ng/mL, 20 hours

half-life [1]: 14.5 min | Permeability (2 %), class [2]: High
Molecule: CN[C@@H](C)C(=O)Nc1ccc(Oc2ccc(OC)cc2)c(C(=O)NCc2csc(-c3cccs3)n2)c1 [Compound 3, (S)-2-(4-methoxyphenoxy)-5-(2-(methylamino)propanamido)-N-((2-(thiophen-2-yl)thiazol-4-yl)methyl)benzamide]
caspase-3 activation [3]: increases caspase-3 activation

Molecule: COc1cc([C@@H]2c3cc4c(cc3[C@@H](O[C@@H]3O[C@@H]5CO[C@@H](C)O[C@H]5[C@H](O)[C@H]3O)[C@H]3COC(=O)[C@H]23)OCO4)cc(OC)c1O [etoposide, reference compound]
DNA fragmentation ([4]; etoposide 5 µM): no obvious DNA fragmentation

B1: TRAIL: tumor necrosis factor-related apoptosis-inducing ligand (Genentech) (protein, UniProt P50591 1-281, looked up)
Tumor necrosis factor ligand …: MAMMEVQGGPSLGQTCVLIVIFTVLLQSLCVAVTYVYFTNELKQMQDKYSKSGIACFLKEDDSYWDPNDEESMNSPCWQVKWQLRQLVRKMILRTSEETISTVQEKQQNISPLVRERGPQRVAAHITGTRGRSNTLSSPNSKNEKALGRKINSWESSRSGHSFLSNLHLRNGELVIHEKGFYYIYSQTYFRFQEEIKENTKNDKQMVQYIYKYTSYPDPILLMKSARNSCWSKDAEYGLYSIYQGGIFELKENDRIFVSVTNEHLIDMDHEASFFGAFLVG
induction of tumor cell death, TRAIL alone [5]: very little effects | DNA fragmentation ([4]; TRAIL 30 ng/ml): no obvious DNA fragmentation
